Tests used:
[1] = target: T1, Alpha-2A adrenergic receptor (Rattus norvegicus, UniProt P22909); assay: Inhibitory potency against alpha-2-adrenoceptor
T1 sequence (P22909 whole entry): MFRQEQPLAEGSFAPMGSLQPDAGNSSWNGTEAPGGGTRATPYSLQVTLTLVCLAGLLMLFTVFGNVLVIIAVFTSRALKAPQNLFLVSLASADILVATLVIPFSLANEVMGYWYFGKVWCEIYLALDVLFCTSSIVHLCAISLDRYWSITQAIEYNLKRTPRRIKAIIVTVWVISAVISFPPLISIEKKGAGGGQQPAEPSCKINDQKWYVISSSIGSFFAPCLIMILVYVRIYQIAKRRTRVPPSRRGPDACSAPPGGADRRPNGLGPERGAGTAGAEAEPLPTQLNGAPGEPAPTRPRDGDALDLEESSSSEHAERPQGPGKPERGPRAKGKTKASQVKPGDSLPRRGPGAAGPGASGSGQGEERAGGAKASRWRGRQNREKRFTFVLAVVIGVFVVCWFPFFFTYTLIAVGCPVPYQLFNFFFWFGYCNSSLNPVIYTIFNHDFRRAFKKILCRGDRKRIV

[2] = Selectivity expressed as the ratio of Ki of alpha-2-adrenoceptor to that of PNMT
[3] = target: T2, Phenylethanolamine N-methyltransferase (Bos taurus, UniProt P10938); assay: Inhibitory potency against bovine phenylethanolamine N-Methyltransferase (PNMT)
T2 sequence (P10938 whole entry): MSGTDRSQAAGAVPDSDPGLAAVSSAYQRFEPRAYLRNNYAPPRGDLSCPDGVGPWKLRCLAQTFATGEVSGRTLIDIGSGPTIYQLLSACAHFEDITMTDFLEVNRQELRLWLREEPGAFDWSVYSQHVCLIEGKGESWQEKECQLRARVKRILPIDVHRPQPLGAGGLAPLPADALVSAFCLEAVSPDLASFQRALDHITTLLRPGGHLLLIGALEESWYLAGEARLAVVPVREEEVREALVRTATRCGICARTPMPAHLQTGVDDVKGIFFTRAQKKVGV

[4] = substrate: NCC1CNCc2ccccc21; assay: Michaelis-Menten constant was determined against bovine phenylethanolamine N-Methyltransferase (PNMT)
[5] = substrate: NCC1CNCc2ccccc21; assay: (§1) Vmax was determined against bovine phenylethanolamine N-Methyltransferase (PNMT)
[6] = substrate: NC[C@@H](O)c1ccccc1; assay: as §1

**Q.** Which Ki [1] does the source give for `Clc1ccc2c(c1Cl)CNCC2` here?
**A.** The Ki was […].

**Q.** With `Clc1ccc2c(c1Cl)CNCCC2` as the molecule, how does the Ki [1] read?
**A.** Its Ki is 4.5 µM.

**Q.** For `OCC1CNCc2ccccc21` (stereo not drawn), which Ki [3] is on record?
**A.** The Ki was 170 µM.

**Q.** For `Ic1ccc2c(c1)CNCC2`, which Ki [1] is on record?
**A.** Its Ki is 0.22 µM.

B1: Phenylethanolamine N-methyltransferase (Bos taurus), P10938 (protein)
chain: T2 sequence (P10938 whole entry)
**Q.** With B1 as the molecule, how does the Km [4] read?
**A.** Its Km is 47 µM.

**Q.** What about the Vmax (nM min-1 mg-1) [5] of the same molecule?
**A.** Its Vmax (nM min-1 mg-1) is 3.4.

**Q.** What about the Vmax (nM min-1 mg-1) [6] of the same molecule?
**A.** The Vmax (nM min-1 mg-1) was 2.2.
